Columns and labels:
prolyl 4-hydroxylase = conditions: U.S. Pat. Nos. 5,789,426; 5,965,585; 5,965,586; cited from earlier work
P4-H [1] = assay: Collagen-derived serum biomarkers (PIIINP, NC1, NTD) for P4-H activity in a tyrosinemia I patient during NTBC treatment; format: in vivo, human
Procedure: A total of ten biomarkers were monitored from just before initiation of NTBC medication to up to 103 days of treatment, generating a total of 60 data points. […] P4-H activity was assessed via specific antigens released from three different groups of collagens, all of which are substrates for this enzyme. These biomarkers, quantified by specific radioimmunoassay, consisted of PIIINP, an indicator for the fibril-forming collagen type III; NC1, a marker for the sheet-forming collagen type IV; and NTD, an indicator for the beaded filament-forming collagen type VI. The P1 antigen, derived from the non-collagenous protein laminin and thus not dependent on P4-H activity, served as control.

P4-H [2] = conditions: one other tyrosinemic child (Pitkanen et al. 1999); cited from earlier work
laminin P1 antigen = assay: Control biomarker P1 antigen of laminin (P4-H independent) during NTBC treatment; format: in vivo, human; conditions: P4-H independent protein
From the text: Inherit Metab. […] Res. 39:[…]

| Structure (SMILES) | inhibition of prolyl 4-hydroxylase (prolyl 4-hydroxylase) | NCI (collagen type IV biomarker) rise over initial value (P4-H [1]; after 103 days on NTBC) | NTC (collagen type VI biomarker) rise over initial value (P4-H [1]; after 103 days on NTBC) | biomarkers for P4-H activity (PIIINP, NC1, NTD), response to NTBC (P4-H [1]; three months study period) | initially elevated PIIINP level, response to treatment with NTBC (P4-H [2]) | laminin P1 antigen, response to NTBC treatment (laminin P1 antigen) |
| --- | --- | --- | --- | --- | --- | --- |
| Cc1c(O)c(=O)ccn1C [DMHP, 1,2-dimethyl-3-hydroxypyrid-4-one] | known inhibitors of prolyl 4-hydroxylase |  |  |  |  |  |
| O=C1CCCC(=O)C1C(=O)c1ccc(C(F)(F)F)cc1[N+](=O)[O-] [NTBC, 2-(2-nitro-4-trifluoromethylbenzoyl)-cyclohexane-1,3-dione] |  | 1.1 factor | 1.1 factor | entirely unresponsive | non-responsive | unresponsive |
